Laboratory results from ChEMBL document CHEMBL4834473, “Novel hydroxybenzylamine-deoxyvasicinone hybrids as anticholinesterase therapeutics for Alzheimer's disease” (Bioorg Med Chem, 2021).
Active and inactive are the calls of the source. The calls are words filed in the database; no cut-off is given here.

How the values were obtained:
[1] = molecular target: Acetylcholinesterase (Homo sapiens) (UniProt P22303); experiment: Inhibition of AChE (unknown origin)-induced amyloid beta (1 to 42) aggregation at 1 to 5 uM measured after 24 hrs by ThT flourescence assay; details: dose 1-5 µM
Chain of Acetylcholinesterase (Homo sapiens) (P22303 whole entry): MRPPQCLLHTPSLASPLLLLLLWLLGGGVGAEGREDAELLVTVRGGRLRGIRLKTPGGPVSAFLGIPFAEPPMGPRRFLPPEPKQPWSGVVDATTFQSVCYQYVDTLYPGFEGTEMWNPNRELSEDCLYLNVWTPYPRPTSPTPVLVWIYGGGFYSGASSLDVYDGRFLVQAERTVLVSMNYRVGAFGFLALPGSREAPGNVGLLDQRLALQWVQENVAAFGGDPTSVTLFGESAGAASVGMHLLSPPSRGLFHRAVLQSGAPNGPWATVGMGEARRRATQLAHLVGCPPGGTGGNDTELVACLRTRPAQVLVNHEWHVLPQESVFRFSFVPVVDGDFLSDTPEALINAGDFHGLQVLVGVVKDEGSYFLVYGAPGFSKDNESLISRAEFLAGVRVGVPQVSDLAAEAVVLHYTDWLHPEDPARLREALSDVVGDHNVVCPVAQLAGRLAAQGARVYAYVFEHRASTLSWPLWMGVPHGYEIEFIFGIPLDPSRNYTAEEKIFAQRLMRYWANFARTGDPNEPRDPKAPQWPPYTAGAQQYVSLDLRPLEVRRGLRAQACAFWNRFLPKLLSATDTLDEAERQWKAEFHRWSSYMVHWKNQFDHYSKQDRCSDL

[2] = Selectivity index, ratio of IC50 for equine serum BChE to IC50 for electric eel AChE
[3] = molecular target: Amyloid-beta precursor protein (Homo sapiens, UniProt P05067); experiment: Inhibition of human amyloid beta (1 to 42) self-induced aggregation measured after 48 hrs by ThT flourescence assay
Chain of Amyloid-beta precursor protein (P05067 whole entry): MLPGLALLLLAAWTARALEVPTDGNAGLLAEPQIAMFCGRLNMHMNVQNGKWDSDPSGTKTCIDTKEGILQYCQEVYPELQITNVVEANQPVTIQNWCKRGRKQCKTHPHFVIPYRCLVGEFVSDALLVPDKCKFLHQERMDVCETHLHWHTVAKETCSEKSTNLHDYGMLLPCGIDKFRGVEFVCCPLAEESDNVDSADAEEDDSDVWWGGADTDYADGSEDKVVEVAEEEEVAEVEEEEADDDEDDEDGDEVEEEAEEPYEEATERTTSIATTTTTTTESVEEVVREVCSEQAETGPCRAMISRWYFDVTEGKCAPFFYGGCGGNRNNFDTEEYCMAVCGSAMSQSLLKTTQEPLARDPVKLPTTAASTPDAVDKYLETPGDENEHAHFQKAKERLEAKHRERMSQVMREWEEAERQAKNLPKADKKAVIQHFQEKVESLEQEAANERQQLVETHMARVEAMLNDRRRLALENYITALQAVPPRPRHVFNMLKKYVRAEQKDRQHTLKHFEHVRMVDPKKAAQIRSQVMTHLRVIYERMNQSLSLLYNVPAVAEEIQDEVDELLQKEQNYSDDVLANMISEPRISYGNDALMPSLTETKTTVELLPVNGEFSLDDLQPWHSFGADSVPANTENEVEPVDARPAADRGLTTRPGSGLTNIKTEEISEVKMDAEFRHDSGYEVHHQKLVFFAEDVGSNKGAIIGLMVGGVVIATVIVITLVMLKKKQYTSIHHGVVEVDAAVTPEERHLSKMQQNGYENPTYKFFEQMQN

Cholinesterase = Cholinesterase (Equus caballus, UniProt P81908); experiment: Inhibition of equine serum BChE using butyrylthiocholine iodide as substrate preincubated for 10 mins followed by addition of substrate and measured after 15 mins by Ellman's method; assay type: cell-free
Chain of Cholinesterase (P81908 whole entry): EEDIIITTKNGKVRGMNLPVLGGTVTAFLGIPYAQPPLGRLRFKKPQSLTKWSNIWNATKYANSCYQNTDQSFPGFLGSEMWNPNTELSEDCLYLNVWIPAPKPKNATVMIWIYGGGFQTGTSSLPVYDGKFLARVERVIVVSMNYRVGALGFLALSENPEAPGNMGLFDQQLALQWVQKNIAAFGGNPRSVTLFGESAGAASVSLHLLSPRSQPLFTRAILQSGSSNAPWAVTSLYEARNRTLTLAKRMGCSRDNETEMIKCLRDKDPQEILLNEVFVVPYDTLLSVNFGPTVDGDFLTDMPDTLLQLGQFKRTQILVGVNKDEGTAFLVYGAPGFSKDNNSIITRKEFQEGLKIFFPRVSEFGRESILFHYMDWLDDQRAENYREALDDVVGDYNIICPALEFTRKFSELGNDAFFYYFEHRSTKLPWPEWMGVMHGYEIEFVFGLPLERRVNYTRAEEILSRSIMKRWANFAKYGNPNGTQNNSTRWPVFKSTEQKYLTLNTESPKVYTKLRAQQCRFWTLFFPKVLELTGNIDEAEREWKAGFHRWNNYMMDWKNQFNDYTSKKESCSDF

Acetylcholinesterase = Acetylcholinesterase (Electrophorus electricus, UniProt O42275); experiment: Inhibition of Electric eel AChE using acetylthiocholine iodide as substrate preincubated for 10 mins followed by addition of substrate and measured after 15 mins by Ellman's method
Chain of Acetylcholinesterase (O42275 whole entry): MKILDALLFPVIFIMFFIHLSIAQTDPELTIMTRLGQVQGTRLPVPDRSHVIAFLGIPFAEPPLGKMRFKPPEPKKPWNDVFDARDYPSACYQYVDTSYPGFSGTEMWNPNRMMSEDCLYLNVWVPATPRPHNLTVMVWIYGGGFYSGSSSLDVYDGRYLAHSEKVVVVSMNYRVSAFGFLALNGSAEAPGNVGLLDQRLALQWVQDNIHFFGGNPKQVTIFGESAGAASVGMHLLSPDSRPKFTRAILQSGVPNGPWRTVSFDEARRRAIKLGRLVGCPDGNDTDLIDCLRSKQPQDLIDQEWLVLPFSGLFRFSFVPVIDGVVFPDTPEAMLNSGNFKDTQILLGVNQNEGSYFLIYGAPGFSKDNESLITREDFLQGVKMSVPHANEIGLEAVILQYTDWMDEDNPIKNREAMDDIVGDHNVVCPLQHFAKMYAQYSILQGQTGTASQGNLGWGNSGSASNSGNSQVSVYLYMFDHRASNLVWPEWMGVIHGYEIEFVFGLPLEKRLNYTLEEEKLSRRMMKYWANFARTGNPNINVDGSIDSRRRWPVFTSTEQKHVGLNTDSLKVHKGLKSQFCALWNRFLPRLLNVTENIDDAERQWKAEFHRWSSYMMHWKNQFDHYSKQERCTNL

[4] = molecular target: Acetylcholinesterase (Electrophorus electricus) (UniProt O42275); experiment: Non-competitive/mixed inhibition of electric eel AChE using varying concentrations of acetylthiocholine iodide as substrate at 0.16 to 0.64 uM measured every 2 mins for 10 mins by Lineweaver-Burk plot analysis; details: dose 0.16-0.64 µM
Chain of Acetylcholinesterase (Electrophorus electricus) (O42275 24-633 limits assumed): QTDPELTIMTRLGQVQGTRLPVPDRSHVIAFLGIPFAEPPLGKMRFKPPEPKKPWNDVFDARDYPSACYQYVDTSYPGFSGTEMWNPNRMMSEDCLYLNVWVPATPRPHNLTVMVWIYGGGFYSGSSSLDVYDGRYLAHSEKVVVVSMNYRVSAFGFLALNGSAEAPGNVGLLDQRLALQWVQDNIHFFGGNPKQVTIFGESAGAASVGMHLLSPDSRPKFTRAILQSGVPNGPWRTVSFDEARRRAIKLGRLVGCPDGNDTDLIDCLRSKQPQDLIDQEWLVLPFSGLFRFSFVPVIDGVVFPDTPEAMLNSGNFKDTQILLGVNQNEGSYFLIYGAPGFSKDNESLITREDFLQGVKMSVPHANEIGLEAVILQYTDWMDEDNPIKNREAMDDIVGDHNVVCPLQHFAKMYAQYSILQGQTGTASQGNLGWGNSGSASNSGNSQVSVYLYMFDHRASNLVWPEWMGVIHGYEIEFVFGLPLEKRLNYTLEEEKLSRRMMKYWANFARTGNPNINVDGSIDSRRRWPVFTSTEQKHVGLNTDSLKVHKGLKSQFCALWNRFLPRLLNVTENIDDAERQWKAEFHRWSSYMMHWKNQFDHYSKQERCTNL

Row | SMILES | inhibition [1] [%] | Ratio IC50 [2] | IC50 [3] [µM] | IC50 (Cholinesterase) [µM] | IC50 (Acetylcholinesterase) [µM] | inhibition [4]
1 | COc1cccc(CNc2cc3c(=O)n4c(nc3cc2C)CCC4)c1O | 55 | 19.5 | 4.26 | 16.2 | 0.83 | 
2 | Cc1cc2nc3n(c(=O)c2cc1NCc1cccc(Br)c1O)CCC3 |  | 3.4 | 9.27 | 21.6 | 6.35 | 
3 | COc1ccc(CNc2cc3c(=O)n4c(nc3cc2C)CCC4)c(O)c1 | 72.6 | 42.9 | 3.22 | 14.6 | 0.34 | Active
4 | O=c1c2ccccc2nc2n1CCC2 [DEOXYVASICINONE] | 3.83 |  |  | 25 | 24 | 
5 | Cc1cc2nc3n(c(=O)c2cc1NCc1ccccc1O)CCC3 | 40.2 | 11.7 | 5.09 | 18.5 | 1.58 | 
6 | O=c1c2cc(NCc3ccccc3O)ccc2nc2n1CCC2 | 49 | 11.9 | 4.69 | 18.2 | 1.53 | 
7 | COc1cccc(CNc2ccc3nc4n(c(=O)c3c2)CCC4)c1O | 55.1 | 17.8 | 4.2 | 16.1 | 0.9 | 
8 | COc1ccc(CNc2ccc3nc4n(c(=O)c3c2)CCC4)c(O)c1 | 68.7 | 40.5 | 3.91 | 15.4 | 0.38 | 
9 | O=c1c2cc(NCc3cc(F)ccc3O)ccc2nc2n1CCC2 |  | 7.91 | 6.3 | 19.9 | 2.51 | 
10 | Cc1cc2nc3n(c(=O)c2cc1NCc1ccc(Cl)cc1O)CCC3 |  | 6.68 | 6.1 | 20.5 | 3.07 | 
11 | Oc1c(I)cc(Cl)c2cccnc12 [CLIOQUINOL] | 11.5 |  | 9.8 |  |  | 
12 | Cc1cc2nc3n(c(=O)c2cc1NCc1cc(F)ccc1O)CCC3 |  | 7.56 | 6.33 | 20.4 | 2.7 | 
13 | O=c1c2cc(NCc3cccc(Br)c3O)ccc2nc2n1CCC2 |  | 3.6 | 8.34 | 20.9 | 5.8 | 
14 | O=c1c2cc(NCc3cc(Br)ccc3O)ccc2nc2n1CCC2 |  | 3.9 | 7.63 | 21.5 | 5.51 | 
15 | O=c1c2cc(NCc3ccc(Cl)cc3O)ccc2nc2n1CCC2 |  | 4.52 | 7.02 | 21.7 | 4.78 | 
16 | Cc1cc2nc3n(c(=O)c2cc1NCc1cc(Br)ccc1O)CCC3 |  | 3.95 | 7.37 | 20.8 | 5.27 | 
